Several values for one entry are separate records, joined by “and”; a condition that tells them apart may be missing. Equal values may be shown once. Read-outs that look alike come from different tables or passages of the source. Marks after values point to notes of the source that are not given here.
Assays:
[1] = biological target: Lister 427WT T. b. brucei; assay: Adenosine deaminase susceptibility (drug sensitivity with/without 2 µM deoxycoformycin); type: cell-based, Trypanosoma brucei brucei
Procedure: Drug susceptibility tests with Lister 427WT, TbAT1-KO[48], B48[26] and ISMR1[27] were performed using an assay based on the viability indicator dye resazurin in 96-well plates, each well containing 2 × 10^4 cells. The plates were incubated for 48 h with a doubling dilution series of the test compounds in HMI-9/fetal bovine serum at 37 °C/5% CO2 (23 dilutions starting at 100 µM, except for the pentamidine control (50 µM)), after which resazurin (20 µL of 125 µg mL^−1 resazurin sodium salt solution was added to each well (containing 200 µL of cells and test compound)) was added to each well and the plates incubated for another 24 h. Fluorescence was determined using a FLUOstar Optima (BMG Labtech, Durham, NC) and the results fitted to a sigmoid curve with variable slope using Prism 5.0 or Prism 7.04 (GraphPad, San Diego, CA). […]
Adenosine deaminase susceptibility
in the presence or absence of 2 µM 2’-deoxycoformycin. […]

[2] = system: B48: pentamidine, diminazene and melaminophenyl arsenical resistant T. brucei line; assay: microbe, parasite or virus in culture; type: cell-based, Trypanosoma brucei brucei; settings: for EC50: Trypanosoma brucei; for RF (B48): resistance factor vs Lister 427WT
[3] = system: T. b. brucei Lister 427WT; assay: Drug susceptibility test (resazurin), Lister 427WT; type: cell-based, Trypanosoma brucei brucei; settings: Trypanosoma brucei
Procedure: (§1) Drug susceptibility tests with Lister 427WT, TbAT1-KO[48], B48[26] and ISMR1[27] were performed using an assay based on the viability indicator dye resazurin in 96-well plates, each well containing 2 × 10^4 cells. The plates were incubated for 48 h with a doubling dilution series of the test compounds in HMI-9/fetal bovine serum at 37 °C/5% CO2 (23 dilutions starting at 100 µM, except for the pentamidine control (50 µM)), after which resazurin (20 µL of 125 µg mL^−1 resazurin sodium salt solution was added to each well (containing 200 µL of cells and test compound)) was added to each well and the plates incubated for another 24 h. Fluorescence was determined using a FLUOstar Optima (BMG Labtech, Durham, NC) and the results fitted to a sigmoid curve with variable slope using Prism 5.0 or Prism 7.04 (GraphPad, San Diego, CA).

[4] = system: ISMR1: isometamidium-resistant T. brucei cell line; assay: microbe, parasite or virus in culture; type: cell-based, Trypanosoma brucei brucei; settings: for EC50: Trypanosoma brucei; for RF (ISMR1): resistance factor vs Lister 427WT
Procedure: as §1

[5] = system: TbAT1-KO: T. brucei cell line lacking the TbAT1(P2) transporter gene; assay: microbe, parasite or virus in culture; type: cell-based, Trypanosoma brucei brucei; settings: for EC50: Trypanosoma brucei; for RF (TbAT1-KO): resistance factor: ratio of EC50 of resistant and Lister 427WT
Procedure: as §1

[6] = system: T. b. brucei AnTAR1.1 PPYRE9; assay: Mouse model of stage 2 HAT (BLI, parasitaemia, SL-RNA qPCR); type: in vivo; settings: for BLI of the head region, RLU data: individual animals; for RLU data, individual mice: Melarsoprol
Procedure: […] Treatment was initiated at 21 dpi. […] Mice were injected i.p. with […] of D-luciferin and anaesthetised using isoflurane. The luminescent signal was acquired from both the dorsal and ventral side of the animals. […] Animals subjected to the different treatment schemes (from 4 wpi) were additionally imaged over a 5 min exposure time for enhanced sensitivity. […] Tissues were weighed and RNA was extracted using the RNeasy Plus Mini Kit (Qiagen) according to the manufacturer’s recommendations. […] A list of primers used is provided in the Supplementary Methods section of the Supplementary Information. BLI images from the IVIS Spectrum In Vivo Imaging System (Perkin Elmer) were analysed using LivingImage v4.3.1. SoftWoRx suite 2.0 for microscopy (image deconvolution), then processing using the Fiji software.

T. b. brucei Squib 427 = assay: Mouse model of acute HAT; settings: Suramin 10 mg/kg sid IP
Procedure: Drinking water and food were available ad libitum throughout the experiment. […] The reference drug suramin was formulated in phospahte-buffered saline (PBS) at 2.5 mg mL^−1 and administered s.i.d. i.p. for 5 days at 10 mg kg^−1 (n = 3). All treatments were initiated 30 min prior to the i.p. infection. […] Parasitaemia was determined by microscopic evaluation of tail vein blood samples at 4, 7, 10, 14 and 21 dpi (pre-set endpoint). As a test of cure, blood samples (250 µL) were collected from treated mice at 21 dpi and were sub-inoculated i.p. in naive Swiss mice (n = 3), followed by monitoring of parasitaemia as follow-up.

[7] = mean and SEM, n = 3, read-out: B48 EC50
[8] = source data, read-out: B48 EC50, AVG
[9] = source data, read-out: s427 EC50, AVG
[10] = mean and SEM, n = 3, read-out: ISMR1 EC50
[11] = source data, read-out: ISMR1 EC50, AVG
[12] = read-out: TbAT1-KO EC50, AVG, source data
[13] = read-out: TbAT1-KO EC50, mean and SEM, n = 3

What does the source list for `Nc1ncnc2c1c(Br)cn2[C@@H]1O[C@H](CO)C[C@H]1O` [FH7429-up (10)]?
EC50 ([1]; DCF +, average of replicates, read-out: EC50 AVG): 1.9 nM; EC50 ([1]; DCF +, read-out: EC50 Reported value): 1.9 ± 0.2 nM; EC50 ([1]; DCF +, single replicate, read-out: EC50): 2.01 nM and 2.18 nM and 1.52 nM; EC50 ([1]; DCF -, average of replicates, read-out: EC50 AVG): 2.02 nM; EC50 ([1]; DCF -, read-out: EC50 Reported value): 2 ± 0.1 nM; EC50 ([1]; DCF -, single replicate, read-out: EC50): 1.9 nM and 1.86 nM and 2.3 nM

`CC[n+]1c(-c2ccccc2)c2cc(N/N=N/c3cccc(C(=N)N)c3)ccc2c2ccc(N)cc21` [Isometamidium, reference compound] was tested. Which EC50 [2, 7] did it give?
The EC50 was 560 ± 130 nM.

What about the EC50 [2, 8] of the same compound?
The EC50 was 514 nM.

What about the “RF (B48)” value [2] of the same compound?
Its value is 0.85.

What about the EC50 ([3]; read-out: Lister 427 EC50, mean and SEM, n = 3) of the same compound?
The EC50 was 650 ± 85 nM.

And the EC50 [3, 9]?
Its EC50 is 758 nM.

What about the EC50 [4, 10] of the same compound?
Its EC50 is 3100 ± 500 nM.

And the EC50 [4, 11]?
The EC50 was 5050 nM.

What about the “RF (ISMR1)” value [4] of the same compound?
Its value is 4.8***.

What about the EC50 [5, 12] of the same compound?
Its EC50 is 736 nM.

What about the EC50 [5, 13] of the same compound?
Its EC50 is 750 ± 140 nM.

And the “RF (TbAT1-KO)” value [5]?
Its value is 1.2.

Which results are given for `N=C(N)c1ccc(/N=N/Nc2ccc(C(=N)N)cc2)cc1` [Diminazene, reference compound]?
EC50 [2, 7]: 7200 ± 1600 nM; EC50 [2, 8]: 7150 nM; RF (B48) [2]: 16.9***; EC50 ([3]; mean and SEM, n = 3, read-out: Lister 427 EC50): 420 ± 64 nM; EC50 [3, 9]: 423 nM; EC50 [4, 10]: 2900 ± 400 nM; EC50 [4, 11]: 2920 nM; RF (ISMR1) [4]: 6.9***; EC50 [5, 12]: 4470 nM; EC50 [5, 13]: 4500 ± 900 nM; RF (TbAT1-KO) [5]: 10.6***

What does the source list for `Nc1nc(N)nc(Nc2ccc([As]3SCC(CO)S3)cc2)n1` (stereo not shown) [Melarsoprol, reference compound]?
BLI of the head region, RLU data ([6]; 3 wpi (start of treatment, 21 dpi)): 20700000 RLU and 53700000 RLU; BLI of the head region, RLU data ([6]; 4 wpi): 96900 RLU and 114000 RLU; BLI of the head region, RLU data ([6]; 5 wpi): 83900 RLU and 96500 RLU; BLI of the head region, RLU data ([6]; 6 wpi): 85000 RLU and 111000 RLU; BLI of the head region, RLU data ([6]; 7 wpi): 90100 RLU and 74800 RLU; BLI of the head region, RLU data ([6]; 8 wpi): 81700 RLU and 77100 RLU; BLI of the head region, RLU data ([6]; 9 wpi): 73000 RLU and 85000 RLU; RLU data, individual mice ([6]; 3 wpi): 133100000 RLU and 14890000 RLU; RLU data, individual mice ([6]; 4 wpi): 121700 RLU and 135100 RLU; RLU data, individual mice ([6]; 5 wpi): 112200 RLU and 109500 RLU; RLU data, individual mice ([6]; 6 wpi): 106700 RLU and 93980 RLU; RLU data, individual mice ([6]; 7 wpi): 99910 RLU and 79400 RLU; RLU data, individual mice ([6]; 8 wpi): 117400 RLU and 101400 RLU; RLU data, individual mice ([6]; 9 wpi): 93050 RLU and 80330 RLU; RLU data, individual mice ([6]; 11 wpi): 77170 RLU and 73440 RLU; RLU data, individual mice ([6]; 12 wpi): 62170 RLU and 64300 RLU; RLU data, individual mice ([6]; 14 wpi): 67840 RLU and 67090 RLU; parasite burdens in brain, spleen and fat by SL-RNA qPCR ([6]; tissues collected at 121 dpi): complete absence of parasite burdens; luminescent signal in the head region ([6]; to levels similar to a non-infected control mouse): rapid decline of the signal

How did the “parasitaemia, individual mice” value (T. b. brucei Squib 427; 4 dpi) turn out when `Cc1ccc(C(=O)Nc2ccc(S(=O)(=O)O)c3cc(S(=O)(=O)O)cc(S(=O)(=O)O)c23)cc1NC(=O)c1cccc(NC(=O)Nc2cccc(C(=O)Nc3cc(C(=O)Nc4ccc(S(=O)(=O)O)c5cc(S(=O)(=O)O)cc(S(=O)(=O)O)c45)ccc3C)c2)c1` [suramin, reference compound] was run?
Its value is 0.

What about the “parasitaemia, individual mice” value (T. b. brucei Squib 427; 7 dpi) of the same compound?
Its value is 0.

And the “parasitaemia, individual mice” value (T. b. brucei Squib 427; 10 dpi)?
The value was 0.

And the “parasitaemia, individual mice” value (T. b. brucei Squib 427; 14 dpi)?
The value was 0.

And the “parasitaemia, individual mice” value (T. b. brucei Squib 427; 21 dpi)?
The value was 0.
